Where two headings read alike, the source gives them in different places.
Legend:
[1] = Evaluation of % alum binding at pH 6.5 (HPLC-MS/MS of supernatant); format: physicochemical; conditions: 1 mg/mL formulation with aluminum hydroxide adjuvant in Histidine buffer, stirred at 25° C. overnight, control without aluminum hydroxide
Description: Evaluation of % Alum Binding
The binding of certain compounds of Formula (I) to aluminum-containing adjuvants at pH 6.5 was evaluated using HPLC-MS/MS to monitor the presence of the compound of Formula (I) in the supernatant.
Evaluation of Binding at pH 6.5
To a mixture of compound (4 mg/mL) in Endotox free water was added 1 M NaOH (2.1 eq) to achieve a clear solution. A mixture of the resulting solution (0.5 mL), Endotox free water (0.86 mL), 100 mM Histidine buffer (0.2 mL) and aluminum hydroxide adjuvant (13.78 mg/mL, 0.44 mL) was stirred at 25° C. overnight to result in a 1 mg/mL formulation. An additional 1 mg/mL formulation was prepared as control in 10 mM Histidine buffer without aluminum hydroxide.
Three 50 uL aliquots of each formulation (in Histidine buffer with and without aluminum hydroxide) were centrifuged at 14,000 rpm for 10 minutes at 4° C. The supernatant was diluted, treated with an internal standard and analyzed by HPLC-MS/MS using a ballistic gradient (from 50% CH3CN-1.0% NH4OH to 95% CH3CN-1.0% NH4OH in 1.5 minutes) on a C8 ([…]×2.1 mm) Waters XBridge column at ambient temperature. The supernatant concentration was determined for each formulation. The fraction in the aluminum hydroxide formulation bound to alum was calculated as follows: […]

human TLR2 = human TLR2 (Homo sapiens, UniProt O60603); experiment: Reporter gene assay: HEK 293 cells stably transfected with human TLR2 and NF-kB-driven luciferase reporter; conditions: for Emax: HEK293, 7 h, read-out: Hek-TLR2 (% Eff); for EC50: HEK 293 stably transfected with human TLR2 and pNifty-Luciferase, 7 hours incubation, concentration giving 50% of maximal signal; for Hek-TLR2 (% Eff): % Eff relative to Pam3CSK4, HEK 293 human TLR2 NF-kB luciferase
Sequence of human TLR2 (O60603 21-784): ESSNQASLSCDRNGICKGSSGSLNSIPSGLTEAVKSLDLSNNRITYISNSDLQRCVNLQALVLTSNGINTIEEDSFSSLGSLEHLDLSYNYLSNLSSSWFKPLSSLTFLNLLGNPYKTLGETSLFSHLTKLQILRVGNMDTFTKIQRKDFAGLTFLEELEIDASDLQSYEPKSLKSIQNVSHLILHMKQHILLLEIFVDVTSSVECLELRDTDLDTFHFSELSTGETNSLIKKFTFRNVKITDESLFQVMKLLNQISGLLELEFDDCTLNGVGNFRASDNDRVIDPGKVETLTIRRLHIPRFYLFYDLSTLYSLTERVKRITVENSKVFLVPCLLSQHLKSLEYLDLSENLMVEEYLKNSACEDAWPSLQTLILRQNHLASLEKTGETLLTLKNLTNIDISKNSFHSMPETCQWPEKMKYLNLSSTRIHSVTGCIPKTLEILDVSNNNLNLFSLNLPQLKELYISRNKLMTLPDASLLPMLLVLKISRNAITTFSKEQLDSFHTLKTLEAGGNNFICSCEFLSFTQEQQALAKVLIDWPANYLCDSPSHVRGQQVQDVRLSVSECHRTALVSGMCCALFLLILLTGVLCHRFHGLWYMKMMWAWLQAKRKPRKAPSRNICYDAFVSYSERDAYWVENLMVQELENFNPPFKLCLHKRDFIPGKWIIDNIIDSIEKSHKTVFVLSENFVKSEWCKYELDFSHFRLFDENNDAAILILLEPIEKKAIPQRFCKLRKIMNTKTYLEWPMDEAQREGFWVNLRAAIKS
Description: As a control assay, normal Hek293 transfected with pNifty-Luc were used. […] Bright-Glo™ Luciferase assay buffer and substrate were supplied by Promega #E263B and #E264B (assay substrate and buffer respectively). 384 well clear-bottom plates were supplied by Greiner bio-one (#789163-G) and were custom bar-coded plates.
Cells were plated at 25,000 cells/well in 384-well plates in a final volume of 50 μl of media. Cells were allowed to adhere to the plates after overnight (18 hours) culture at 37° C. and 5% CO2. Serially diluted experimental and positive control compounds were then dispensed to each well and incubated for 7 hours at 37° C. and 5% CO2. Cells stimulated with DMSO alone also serve as negative controls. After the incubation, 30 μl of the pre-mix assay buffer and substrate buffer were added to each well according to manufacturer's instructions. The luminescence signal was read on a CLIPR machine with an integration time of 20 seconds per plate.

Compound | Alum Binding % [1] [%] | Emax (human TLR2) [%] | EC50 (human TLR2; Hek-TLR2 μM (EC50)) [nM] | Hek-TLR2 (% Eff) (human TLR2) | EC50 (human TLR2; read-out: Hek-TLR2 μM (EC50)) [nM]
CCCCCCCCCCCC(=O)OC[C@H](CSC[C@H](N)C(=O)NCCOCCOCCP(=O)(O)O)OC(=O)CCCCCCCCCCC [Example 5, (11R,15R)-11-amino-15-(dodecanoyloxy)-10,18-dioxo-3,6,17-trioxa-13-thia-9-azanonacosylphosphonic acid] | >80 | – | – | – | –
CCCCCCCCCCCC(=O)OC[C@H](CSC[C@H](N)C(=O)NC1(COCCCP(=O)(O)O)CC1)OC(=O)CCCCCCCCCCC [Example 15, 3-((1-((R)-2-amino-3-((R)-2,3-bis(dodecanoyloxy)propylthio)propanamido)cyclopropyl)methoxy)propylphosphonic acid] | >80 | – | – | – | –
CCCCCCCCCCCC(=O)OC[C@H](CSC[C@H](N)C(=O)NCCCC(F)(F)P(=O)(O)O)OC(=O)CCCCCCCCCCC [Example 19, 4-((R)-2-amino-3-((R)-2,3-bis(dodecanoyloxy)propylthio)propanamido)-1,1-difluorobutylphosphonic acid] | >80 | – | – | – | –
CCCCCCCCCCCCOC[C@H](CSC[C@H](N)C(=O)NCCOCCOCCOCCP(=O)(O)O)NC(=O)CCCCCCCCCCC [Example 26, ((14R,18R)-14-amino-18-dodecanamido-13-oxo-3,6,9,20-tetraoxa-16-thia-12-azadotriacontyl)phosphonic acid] | >80 | 28 | 1750 | – | –
CCCCCCCCCCCCOC[C@H](CSC[C@H](N)C(=O)NCCOCCOCCOCCOCCP(=O)(O)O)OCCCCCCCCCCCC [Example 78, ((17R,21R)-17-amino-21-(dodecyloxy)-16-oxo-3,6,9,12,23-pentaoxa-19-thia-15-azapentatriacontyl)phosphonic acid] | – | 35 | 1430 | – | –
CCCCCCCCCCCCOC[C@H](CSC[C@H](N)C(=O)NCCOCCOCCOCCOCCP(=O)(O)O)NC(=O)CCCCCCCCCCC [Example 79, ((17R,21R)-17-amino-21-dodecanamido-16-oxo-3,6,9,12,23-pentaoxa-19-thia-15-azapentatriacontyl)phosphonic acid] | – | 20 | 1860 | – | –
CCCCCCCCCCCCOC[C@H](CSC[C@H](N)C(=O)N[C@@H](CO)C(=O)NCCOCCOCCP(=O)(O)O)OCCCCCCCCCCCC [Example 80, ((11S,14R,18R)-14-amino-18-(dodecyloxy)-11-(hydroxymethyl)-10,13-dioxo-3,6,20-trioxa-16-thia-9,12-diazadotriacontyl)phosphonic acid] | – | 52 | 1910 | – | –
CCCCCCCCCCCCOC[C@H](CSC[C@H](N)C(=O)N[C@@H](CO)C(=O)NCCOCCOCCP(=O)(O)O)NC(=O)CCCCCCCCCCC [Example 81, ((11S,14R,18R)-14-amino-18-dodecanamido-11-(hydroxymethyl)-10,13-dioxo-3,6,20-trioxa-16-thia-9,12-diazadotriacontyl)phosphonic acid] | – | 30 | 1970 | – | –
CCCCCCCCCCCC(=O)OC[C@H](CSC[C@H](N)C(=O)NCCCS(=O)(=O)O)OC(=O)CCCCCCCCCCC [Example 84, 3-((R)-2-amino-3-(((R)-2,3-bis(dodecanoyloxy)propyl)thio)propanamido)propane-1-sulfonic acid] | – | 72 | 5560 | – | –
CCCCCCCCCCNC(=O)OC[C@H](CSC[C@H](NC(=O)CCCCCC)C(=O)NCCOCCOCCOCCP(=O)(O)O)OC(=O)NCCCCCCCCCC [Example 85, ((14R,18R)-18-((decylcarbamoyl)oxy)-14-heptanamido-13,21-dioxo-3,6,9,20-tetraoxa-16-thia-12,22-diazadotriacontyl)phosphonic acid] | – | 71 | 2170 | – | –
CCCCCCCCCCCC(=O)OC[C@H](CSC[C@H](N)C(=O)NCCOCCOCCOCCC(=O)O)OC(=O)CCCCCCCCCCC [Example 86, (15R,19R)-15-amino-19-(dodecanoyloxy)-14,22-dioxo-4,7,10,21-tetraoxa-17-thia-13-azatritriacontan-1-oic acid] | – | 84 | 900 | – | –
CCCCCCCCCCCCCCCC(=O)N[C@@H](CSC[C@@H](COC(=O)CCCCCCCCCCC)OC(=O)CCCCCCCCCCC)C(=O)NCCOCCOCCOCCC(=O)O [Example 87, (15R,19R)-19-(dodecanoyloxy)-14,22-dioxo-15-palmitamido-4,7,10,21-tetraoxa-17-thia-13-azatritriacontan-1-oic acid] | – | 30 | 38000 | – | –
CCCCCCCCCCCCCCCC(=O)N[C@@H](CSC[C@@H](COC(=O)CCCCCCCCCCC)OC(=O)CCCCCCCCCCC)C(=O)N[C@@H](CO)C(=O)NCCOCCOCCOCCC(=O)O [Example 89, (15S,18R,22R)-22-(dodecanoyloxy)-15-(hydroxymethyl)-14,17,25-trioxo-18-palmitamido-4,7,10,24-tetraoxa-20-thia-13,16-diazahexatriacontan-1-oic acid] | – | 104 | 4940 | – | –
CCCCCCCCCCCCOC[C@H](CSC[C@H](N)C(=O)NCCOCCOCCOCCP(=O)(O)O)OC(=O)NCCCCCCCCCC [Example 90, ((14R,18R)-14-amino-18-((dodecyloxy)methyl)-13,20-dioxo-3,6,9,19-tetraoxa-16-thia-12,21-diazahentriacontyl)phosphonic acid] | – | 47 | > 100000 | – | –
(4R,7S,10R,14R)-4-carbamoyl-7-ethyl-6,9,17-trioxo-10-palmitamido-14-(palmitoyloxy)-16-oxa-12-thia-5,8-diazadotriacontan-1-oic acid [Example 47] | – | – | – | (88%) | 565
(4R,7S,10R,14R)-10-amino-4-carbamoyl-7-ethyl-6,9,17-trioxo-14-(palmitoyloxy)-16-oxa-12-thia-5,8-diazadotriacontan-1-oic acid [Example 48] | – | – | – | (106%) | 1360

The next lines start with results.

Alum Binding % [1] [%] | Emax (human TLR2) [%] | EC50 (human TLR2; Hek-TLR2 μM (EC50)) [nM] | Compound | Hek-TLR2 (% Eff) (human TLR2) | EC50 (human TLR2; read-out: Hek-TLR2 μM (EC50)) [nM]
>80 | 103 | 119 | CCCCCCCCCCCC(=O)OC[C@H](CSC[C@H](N)C(=O)NCCOCCP(=O)(O)O)OC(=O)CCCCCCCCCCC [Example 3, (8R,12R)-8-amino-12-(dodecanoyloxy)-7,15-dioxo-3,14-dioxa-10-thia-6-azahexacosylphosphonic acid] | – | –
>80 | 96 | 270 | CCCCCCCCCCCC(=O)OC[C@H](CSC[C@H](N)C(=O)NCCOCCOCCOCCP(=O)(O)O)OC(=O)CCCCCCCCCCC [Example 18, (14R,18R)-14-amino-18-(dodecanoyloxy)-13,21-dioxo-3,6,9,20-tetraoxa-16-thia-12-azadotriacontylphosphonic acid] | – | –
>80 | 84 | 552 | CCCCCCCCCCCCOC[C@H](CSC[C@H](N)C(=O)NCCOCCOCCOCCP(=O)(O)O)OCCCCCCCCCCCC [Example 20, (14R,18R)-14-amino-18-(dodecyloxy)-13-oxo-3,6,9,20-tetraoxa-16-thia-12-azadotriacontylphosphonic acid] | – | –
– | 84 | 830 | CCCCCCCCCCNC(=O)OC[C@H](CSC[C@H](NC(C)=O)C(=O)NCCOCCOCCOCCP(=O)(O)O)OC(=O)NCCCCCCCCCC [Example 82, ((14R,18R)-14-acetamido-18-((decylcarbamoyl)oxy)-13,21-dioxo-3,6,9,20-tetraoxa-16-thia-12,22-diazadotriacontyl)phosphonic acid] | – | –
– | 76 | 820 | CCCCCCCCCCNC(=O)OC[C@H](CSC[C@H](N)C(=O)NCCOCCOCCOCCP(=O)(O)O)OC(=O)NCCCCCCCCCC [Example 83, ((14R,18R)-14-amino-18-((decylcarbamoyl)oxy)-13,21-dioxo-3,6,9,20-tetraoxa-16-thia-12,22-diazadotriacontyl)phosphonic acid] | – | –
– | 145 | 9.2 | CCCCCCCCCCCC(=O)OC[C@H](CSC[C@H](N)C(=O)N[C@@H](CO)C(=O)NCCOCCOCCOCCC(=O)O)OC(=O)CCCCCCCCCCC [Example 88, (15S,18R,22R)-18-amino-22-(dodecanoyloxy)-15-(hydroxymethyl)-14,17,25-trioxo-4,7,10,24-tetraoxa-20-thia-13,16-diazahexatriacontan-1-oic acid] | – | –
– | 120 | 61 | CCCCCCCCCCCC(=O)OC[C@H](CSC[C@H](N)C(=O)NCCOCCOS(=O)(=O)O)OC(=O)CCCCCCCCCCC [Example 91, (R)-3-(((R)-2-amino-3-oxo-3-((2-(2-(sulfooxy)ethoxy)ethyl)amino)propyl)thio)propane-1,2-diyl didodecanoate] | – | –
– | 99 | 280 | CCCCCCCCCCNC(=O)OC[C@H](CSC[C@H](NC(=O)CCCCC)C(=O)NCCOCCOCCOCCP(=O)(O)O)OC(=O)NCCCCCCCCCC [Example 92, ((14R,18R)-18-((decylcarbamoyl)oxy)-14-hexanamido-13,21-dioxo-3,6,9,20-tetraoxa-16-thia-12,22-diazadotriacontyl)phosphonic acid] | – | –

Reference: US9365506B2, “Compounds and compositions as TLR2 agonists” (NOVARTIS AG, priority 2010, dated 2016)
